Measured values published in patent US7041470B2, “Method of assaying the susceptibility of biofilms to anti-microbial agents” (University Technologies International, Inc., priority 1996, dated 2006).

How the values were obtained:
[1] = system: staphylococcus aureus biofilm; experiment: staphylococcus aureus biofilm on projections, antibiotic treatment, manual cfu count; assay type: cell-based
Procedure: (§1) Up to 8 different antibiotics or biocides can be tested by using 1 row (A-H) for each antimicrobial reagent. […] Rinse the remaining projections in PBS using a troughed vessel 20 and place the colonized projections into the 96 well antibiotic plate and incubate overnight at 37° C. […] (3) From the freshly sonicated plate remove 0.02 ml of the medium from each well and spot plate neat; and 0.025 ml from each well to prepare a serial dilution (10^-1 to 10^-6) and spot plate 0.02 ml (dilutions can be done in microtiter plates, one for each antibiotic). Place the plate containing the remaining medium and bacteria to incubate at 37° C., overnight. Day 4: Assay the sessile survival, by for example reading the plate incubated overnight at 490 nm or by counting the colonies on the plates to determine the actual number of surviving bacteria, or by using some other method known in the art. Several different conventional methods may be used to count the bacteria. It may be done by incubating the sonicated bacteria, taking serial dilutions and visually counting the colony forming units, or automated methods may be used, as for example using an optical reader to determine optical density. […] In the case of using vital dye technology, the biofilm need not be further incubated. In a further embodiment, the assay may be carried out by sonicating the cells until they lyse and release ATP and then adding luciferase to produce a mechanically readable light output. In a still further embodiment, the assay may be carried out directly on the biofilm on the projections using a confocal microscope, although it should be considered that this is difficult to automate. […] Examples are given to show a comparison between counts of planktonic bacteria and counts of sessile bacteria for the same growth conditions. […] The antibiotic was applied to the wells 2-12 of the rows A-G of a 96 well plate as follows: well 2: no antibiotic, well 3: 1000 μg/mL, well 4: 500 μg/mL . . . well 12: 2 μg/mL.

[2] = system: Escherichia coli biofilm; experiment: Escherichia coli biofilm on projections, antibiotic treatment, manual cfu count; assay type: cell-based
Procedure: as §1, with “(10^−1” for “(10^-1”, “10^−6)” for “10^-6)”, “The initial biofilm was colonized for four hours. The” for “The”, “A-H” for “A-G”, “μg/mL. 250 μL final volume of diluted antibiotic was applied to the wells.” for “μg/mL.”

[3] = well 5 of doubling dilutions, well 3: 1000 μg/mL to well 12: 2 μg/mL
[4] = well 6 of doubling dilutions, well 3: 1000 μg/mL to well 12: 2 μg/mL ([…] implied)
[5] = well 7 of doubling dilutions, well 3: 1000 μg/mL to well 12: 2 μg/mL
[6] = well 8 of doubling dilutions, well 3: 1000 μg/mL to well 12: 2 μg/mL
[7] = well 10 of doubling dilutions, well 3: 1000 μg/mL to well 12: 2 μg/mL ([…] implied)
[8] = well 11 of doubling dilutions, well 3: 1000 μg/mL to well 12: 2 μg/mL

For O=C(O)c1cn(C2CC2)c2cc(N3CCNCC3)c(F)cc2c1=O [G, Ciprofloxacin], the “manually counted cfu, staphylococcus aureus biofilm” value ([1]; well 3: 1000 μg/mL antibiotic) was 0 cfu, the “manually counted cfu, staphylococcus aureus biofilm” value ([1]; well 4: 500 μg/mL antibiotic) was 0 cfu and the “manually counted cfu, staphylococcus aureus biofilm” value [1, 3] was 0 cfu. The “manually counted cfu, staphylococcus aureus biofilm” value [1, 4] was 50 cfu, the “manually counted cfu, staphylococcus aureus biofilm” value [1, 5] was 1.0 × 10^2 cfu and the “manually counted cfu, staphylococcus aureus biofilm” value [1, 6] was 50 cfu. The “manually counted cfu, staphylococcus aureus biofilm” value ([1]; well 9 of doubling dilutions, well 3: 1000 μg/mL to well 12: 2 μg/mL) was 0 cfu, the “manually counted cfu, staphylococcus aureus biofilm” value [1, 7] was 0 cfu and the “manually counted cfu, staphylococcus aureus biofilm” value [1, 8] was 0 cfu. For the same compound, the “manually counted cfu, staphylococcus aureus biofilm” value ([1]; well 12: 2 μg/mL antibiotic) was 0 cfu, the “manually counted cfu, Escherichia coli biofilm” value ([2]; well 3: 1000 μg/mL antibiotic, biofilm colonized four hours) was 0 cfu and the “manually counted cfu, Escherichia coli biofilm” value ([2]; well 4: 500 μg/mL antibiotic, biofilm colonized four hours) was 0 cfu. For the same compound, the “manually counted cfu, Escherichia coli biofilm” value [2, 3] was 0 cfu, the “manually counted cfu, Escherichia coli biofilm” value [2, 4] was 0 cfu and the “manually counted cfu, Escherichia coli biofilm” value [2, 5] was 0 cfu. For the same compound, the “manually counted cfu, Escherichia coli biofilm” value [2, 6] was 0 cfu, the “manually counted cfu, Escherichia coli biofilm” value [2, 7] was 0 cfu and the “manually counted cfu, Escherichia coli biofilm” value [2, 8] was 0 cfu.
